According to patent publication US8431596B2 (Cancer Research Technology Limited, priority 2007, dated 2013):
“And” between values parts separate entries of the source, which are not always exact repeats. Identical values can stand only once.

Biological target: T1, AXL (human catalytic domain) (Homo sapiens, UniProt P30530)
T1 construct: purchased Upstate Ltd. 14-512
T1 sequence (P30530 473-894): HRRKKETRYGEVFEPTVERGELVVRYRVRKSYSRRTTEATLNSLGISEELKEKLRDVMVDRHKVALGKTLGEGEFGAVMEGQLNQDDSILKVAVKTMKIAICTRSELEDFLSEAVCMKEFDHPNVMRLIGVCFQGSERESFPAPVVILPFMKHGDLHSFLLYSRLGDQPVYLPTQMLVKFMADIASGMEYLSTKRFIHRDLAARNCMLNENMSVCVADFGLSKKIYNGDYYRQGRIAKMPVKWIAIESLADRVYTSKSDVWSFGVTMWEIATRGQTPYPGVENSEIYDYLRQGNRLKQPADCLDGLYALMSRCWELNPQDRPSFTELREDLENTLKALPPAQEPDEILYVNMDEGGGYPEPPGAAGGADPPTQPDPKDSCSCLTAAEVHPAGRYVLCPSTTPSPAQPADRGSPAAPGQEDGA
Test: AXL (human catalytic domain) Enzyme Activity Assay (IMAP fluorescence polarisation)
Assay type: biochemical
Settings: first data set; recombinant AXL isoform 1 aa473-894, 150 μM ATP
How it was run: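 IMAP FP readout (Ex485/Em535, after overnight binding) measured inhibition of the human AXL catalytic domain (aa473-894, 15 nM final) acting on 100 nM 5FAM-CSK-tide at 150 μM ATP, equal to KM. Reactions ran 60 min at room temperature in pH 7.0 HEPES buffer; IC50 from 10-point curves.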

Row | SMILES | IC50
1 | COc1ccc(-c2nccc3nc(Nc4ccc(OCCN5CCCCC5)cc4)nn23)cc1 [YY-002] | < 1000 nM
2 | COc1ccc(-c2nccc3nc(Nc4ccc(OCCN(C)C)cc4)nn23)cc1 [YY-003] | < 1000 nM and 105 nM
3 | COc1ccc(-c2nccc3nc(Nc4ccc(C(=O)NCCN(C)C)cc4)nn23)cc1 [YY-004] | < 1000 nM

Same assay, conditions: further data set (WW-001 through WW-169, XX-001 through XX-469, YY-001 through YY-016, ZZ-001 through ZZ-003); 150 μM ATP

Row | SMILES | IC50
4 | c1ccc2sc(-c3cccc4nc(Nc5ccc(OCCCN6CCCCC6)cc5)nn34)cc2c1 [XX-422] | 100 to 1000 nM
5 | c1ccc(Cn2cc(-c3cccc4nc(Nc5ccc(OCCCN6CCCCC6)cc5)nn34)cn2)cc1 [XX-423] | 100 to 1000 nM
6 | Cc1csc(SCCn2cc(-c3cccc4nc(Nc5ccc(OCCN6CCCC6)cc5)nn34)cn2)n1 [XX-424] | 100 to 1000 nM
7 | c1cc(-c2cnn(CCSc3nccs3)c2)n2nc(Nc3ccc(OCCN4CCCC4)cc3)nc2c1 [XX-425] | 100 to 1000 nM
8 | c1csc(SCCn2cc(-c3cccc4nc(Nc5ccc(OCCN6CCCC6)cc5)nn34)cn2)c1 [XX-426] | 100 to 1000 nM
9 | c1coc(CSCCn2cc(-c3cccc4nc(Nc5ccc(OCCN6CCCC6)cc5)nn34)cn2)c1 [XX-427] | 100 to 1000 nM
10 | Cn1nnnc1SCCn1cc(-c2cccc3nc(Nc4ccc(OCCN5CCCC5)cc4)nn23)cn1 [XX-428] | 1000 to 10000 nM
11 | Cn1cnnc1SCCn1cc(-c2cccc3nc(Nc4ccc(OCCN5CCCC5)cc4)nn23)cn1 [XX-429] | 100 to 1000 nM
12 | Cc1nnc(SCCn2cc(-c3cccc4nc(Nc5ccc(OCCN6CCCC6)cc5)nn34)cn2)s1 [XX-430] | 100 to 1000 nM
13 | Clc1cccc(SCCn2cc(-c3cccc4nc(Nc5ccc(OCCN6CCCC6)cc5)nn34)cn2)c1 [XX-431] | 100 to 1000 nM
14 | O=C(Cn1cc(-c2cccc3nc(Nc4ccc(OCCN5CCCC5)cc4)nn23)cn1)Nc1ccccc1 [XX-432] | 100 to 1000 nM
15 | O=C(Cn1cc(-c2cccc3nc(Nc4ccc(OCCN5CCCC5)cc4)nn23)cn1)NCc1ccccc1 [XX-433] | 100 to 1000 nM
16 | CC(C)NC(=O)Cn1cc(-c2cccc3nc(Nc4ccc(OCCN5CCCC5)cc4)nn23)cn1 [XX-434] | 1000 to 10000 nM
17 | O=C(Cn1cc(-c2cccc3nc(Nc4ccc(OCCN5CCCC5)cc4)nn23)cn1)Nc1cccc(Cl)c1 [XX-435] | 100 to 1000 nM
18 | O=C(Cn1cc(-c2cccc3nc(Nc4ccc(OCCN5CCCC5)cc4)nn23)cn1)NCCO [XX-436] | 100 to 1000 nM
19 | O=C(Cn1cc(-c2cccc3nc(Nc4ccc(OCCN5CCCC5)cc4)nn23)cn1)NC1CC1 [XX-437] | 1000 to 10000 nM

Row | SMILES | IC50
20 | Cc1c(-c2cccc3nc(Nc4ccc(OCCN5CCCC5)cc4)nn23)cnn1-c1ccccc1 [XX-438] | 100 to 1000 nM
21 | O=C(O)Cn1cc(-c2cccc3nc(Nc4ccc(OCCN5CCCC5)cc4)nn23)cn1 [XX-440, (4-{2-[4-(2-Pyrrolidin-1-yl-ethoxy)-phenylamino]-[1,2,4]triazolo[1,5-a]pyridin-5-yl}-pyrazol-1-yl)-acetic acid] | 1000 to 10000 nM
22 | CCCNC(=O)Cn1cc(-c2cccc3nc(Nc4ccc(OCCN5CCCC5)cc4)nn23)cn1 [XX-441] | 100 to 1000 nM
23 | c1ccc(-c2cc(CNc3cccc(-c4cccc5nc(Nc6ccc(OCCN7CCCC7)cc6)nn45)c3)no2)cc1 [XX-445] | 100 to 1000 nM
24 | c1cc(NCc2nc3c(s2)CCCC3)cc(-c2cccc3nc(Nc4ccc(OCCN5CCCC5)cc4)nn23)c1 [XX-447] | 100 to 1000 nM
25 | FC(F)(F)c1ccc(CNc2cccc(-c3cccc4nc(Nc5ccc(OCCN6CCCC6)cc5)nn34)c2)o1 [XX-448] | 100 to 1000 nM
26 | COc1cc(CNc2cccc(-c3cccc4nc(Nc5ccc(OCCN6CCCC6)cc5)nn34)c2)cc(OC)c1 [XX-450] | 100 to 1000 nM
27 | COc1ccccc1CNc1cccc(-c2cccc3nc(Nc4ccc(OCCN5CCCC5)cc4)nn23)c1 [XX-451] | 100 to 1000 nM
28 | COc1ccc(CNc2cccc(-c3cccc4nc(Nc5ccc(OCCN6CCCC6)cc5)nn34)c2)cc1 [XX-453] | 100 to 1000 nM
29 | Cc1ccccc1CNc1cccc(-c2cccc3nc(Nc4ccc(OCCN5CCCC5)cc4)nn23)c1 [XX-454] | 100 to 1000 nM
30 | Cc1cccc(CNc2cccc(-c3cccc4nc(Nc5ccc(OCCN6CCCC6)cc5)nn34)c2)c1 [XX-455] | 1000 to 10000 nM
31 | Fc1ccc(CNc2cccc(-c3cccc4nc(Nc5ccc(OCCN6CCCC6)cc5)nn34)c2)cc1 [XX-456] | 100 to 1000 nM
32 | O=C(NCc1ccc(Cl)cc1)c1cccc(-c2cccc3nc(Nc4ccc(OCCN5CCCC5)cc4)nn23)c1 [XX-462, N-(4-Chloro-benzyl)-3-{2-[4-(2-pyrrolidin-1-yl-ethoxy)-phenylamino]-[1,2,4]triazolo[1,5-a]pyridin-5-yl}-benzamide] | 1000 to 10000 nM
33 | c1cc(-c2ccncc2)cc(-c2cccc3nc(Nc4ccc(OCCN5CCCC5)cc4)nn23)c1 [XX-466] | 100 to 1000 nM
34 | Fc1ccc(-c2cccc(-c3cccc4nc(Nc5ccc(OCCN6CCCC6)cc5)nn34)c2)cc1 [XX-467] | 1000 to 10000 nM
35 | c1cc(-c2cncnc2)cc(-c2cccc3nc(Nc4ccc(OCCN5CCCC5)cc4)nn23)c1 [XX-469] | 100 to 1000 nM

Now from value to compound:

Row | IC50 | SMILES
36 | ≤ 100 nM | CC[C@H](COc1ccc(Nc2nc3cccc(-c4ccc(OC)cc4)n3n2)cc1)N1CCCC1 [XX-414]
37 | 100 to 1000 nM | CCN(CC)CCOc1cc(Nc2nc3cccc(-c4ccc(OC)cc4)n3n2)ccc1C [XX-415]
38 | ≤ 100 nM | CCN(CC)CCOc1c(C)cc(Nc2nc3cccc(-c4ccc(OC)cc4)n3n2)cc1C [XX-416]
39 | 100 to 1000 nM | CCN(CC)CCOc1ccc(Nc2nc3cccc(-c4ccc(OC)cc4)n3n2)cc1Cl [XX-417]
40 | 100 to 1000 nM | CCN(CC)CCOc1cc(Nc2nc3cccc(-c4ccc(OC)cc4)n3n2)cc(F)c1F [XX-418]
41 | 100 to 1000 nM | c1cc(-c2ccc3c(c2)OCCO3)n2nc(Nc3ccc(OCCCN4CCCCC4)cc3)nc2c1 [XX-419]
42 | 100 to 1000 nM | CC(C)Oc1ccc(-c2cccc3nc(Nc4ccc(OCCCN5CCCCC5)cc4)nn23)cc1 [XX-420]
43 | 100 to 1000 nM | Cc1ccc(-c2cccc3nc(Nc4ccc(OCCCN5CCCCC5)cc4)nn23)cc1F [XX-421]
44 | 100 to 1000 nM | Cn1ccc2cc(-c3cccc4nc(Nc5ccc(OCCN6CCCC6)cc5)nn34)ccc21 [XX-439]
45 | 100 to 1000 nM | c1cncc(CNc2cccc(-c3cccc4nc(Nc5ccc(OCCN6CCCC6)cc5)nn34)c2)c1 [XX-442]
46 | 100 to 1000 nM | Fc1ccc(CNc2cccc(-c3cccc4nc(Nc5ccc(OCCN6CCCC6)cc5)nn34)c2)nc1 [XX-443]
47 | 100 to 1000 nM | c1cc(NCC2CC2)cc(-c2cccc3nc(Nc4ccc(OCCN5CCCC5)cc4)nn23)c1 [XX-444]
48 | 100 to 1000 nM | Cc1cc(CNc2cccc(-c3cccc4nc(Nc5ccc(OCCN6CCCC6)cc5)nn34)c2)no1 [XX-446]
49 | 100 to 1000 nM | Cc1ncc(CNc2cccc(-c3cccc4nc(Nc5ccc(OCCN6CCCC6)cc5)nn34)c2)n1C [XX-449]
50 | 100 to 1000 nM | COc1cccc(CNc2cccc(-c3cccc4nc(Nc5ccc(OCCN6CCCC6)cc5)nn34)c2)c1 [XX-452]
51 | 1000 to 10000 nM | Cc1ccc(COc2cccc(-c3cccc4nc(Nc5ccc(OCCN6CCCC6)cc5)nn34)c2)cc1 [XX-457]
52 | 1000 to 10000 nM | Cn1nc(COc2cccc(-c3cccc4nc(Nc5ccc(OCCN6CCCC6)cc5)nn34)c2)cc1-c1ccccc1 [XX-459]
53 | 100 to 1000 nM | Cc1cc(COc2cccc(-c3cccc4nc(Nc5ccc(OCCN6CCCC6)cc5)nn34)c2)nn1C [XX-460]
54 | 1000 to 10000 nM | COc1ccc(-c2nc(COc3cccc(-c4cccc5nc(Nc6ccc(OCCN7CCCC7)cc6)nn45)c3)no2)cc1 [XX-461]

Row | IC50 | SMILES
55 | 1000 to 10000 nM | Cc1ccc(-c2cccc(-c3cccc4nc(Nc5ccc(OCCN6CCCC6)cc5)nn34)c2)s1 [XX-463]
56 | 100 to 1000 nM | Cc1noc(C)c1-c1cccc(-c2cccc3nc(Nc4ccc(OCCN5CCCC5)cc4)nn23)c1 [XX-464]
57 | 1000 to 10000 nM | Cc1ccc(-c2cccc(-c3cccc4nc(Nc5ccc(OCCN6CCCC6)cc5)nn34)c2)cc1 [XX-465]
58 | 1000 to 10000 nM | COc1ccc(-c2cccc(-c3cccc4nc(Nc5ccc(OCCN6CCCC6)cc5)nn34)c2)cc1 [XX-468]
59 | ≤ 100 nM | COc1ccc(-c2nccc3nc(Nc4ccc(OCCN5CCCCC5)cc4)nn23)cc1 [YY-002]
60 | 100 to 1000 nM | COc1ccc(-c2nccc3nc(Nc4ccc(OCCN(C)C)cc4)nn23)cc1 [YY-003]
61 | ≤ 100 nM | COc1ccc(-c2nccc3nc(Nc4ccc(C(=O)NCCN(C)C)cc4)nn23)cc1 [YY-004]
62 | 1000 to 10000 nM | CCOc1ccc(-c2nccc3nc(Nc4cccc(OCCN(CC)CC)c4)nn23)cc1 [YY-005]
63 | 100 to 1000 nM | CCOc1ccc(-c2nccc3nc(Nc4ccc(OCCN5CCCC5)c(OC)c4)nn23)cc1 [YY-006]
64 | 100 to 1000 nM | CCOc1ccc(-c2nccc3nc(Nc4ccc(OCCN5CCCC5)cc4)nn23)cc1 [YY-007]
65 | 100 to 1000 nM | COc1cc(Nc2nc3ccnc(-c4ccc5c(c4)OCCO5)n3n2)ccc1OCCN1CCCC1 [YY-008]
66 | 100 to 1000 nM | CCN(CC)CCOc1cccc(Nc2nc3ccnc(-c4ccc5c(c4)OCCO5)n3n2)c1 [YY-009]
67 | 100 to 1000 nM | c1cc2nc(Nc3ccc(OCCN4CCCC4)cc3)nn2c(-c2ccc3c(c2)OCCO3)n1 [YY-010]
68 | 100 to 1000 nM | c1ccc(Cn2cc(-c3nccc4nc(Nc5ccc(OCCN6CCCC6)cc5)nn34)cn2)cc1 [YY-011, [5-(1-Benzyl-1H-pyrazol-4-yl)-[1,2,4]triazolo[1,5-c]pyrimidin-2-yl]-[4-(2-pyrrolidin-1-yl-ethoxy)-phenyl]-amine]
69 | 100 to 1000 nM | FC(F)(F)c1ccc(-c2nccc3nc(Nc4ccc(OCCN5CCCC5)cc4)nn23)cc1 [YY-013]
70 | ≤ 100 nM | Cc1ccc(-c2nccc3nc(Nc4ccc(OCCN5CCCC5)cc4)nn23)cc1F [YY-014]
71 | 100 to 1000 nM | Cc1cc(C)cc(-c2nccc3nc(Nc4ccc(OCCN5CCCC5)cc4)nn23)c1 [YY-015]
72 | 1000 to 10000 nM | CCN(CC)CCOc1cc(Nc2nc3ccnc(-c4cnn(Cc5ccccc5)c4)n3n2)ccn1 [YY-016]
